The cell lines below were run with N#CC1(c2ccc(NC(=O)c3cccnc3NCc3ccncc3)cc2)CCCC1 [Apatinib] + O=C(CCCCCCC(=O)Nc1ccccc1)NO [Vorinostat] (partner 1 µM) (assay: relative viability (nuclei count vs DMSO), 5 days (fraction); higher = more cells survive). Conditions: first compound 0.08 µM.
In short: (§1)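 Medians of duplicate plates are given as relative viability. That measure is the nuclei count in treated wells divided by the count in vehicle wells. Counts were taken on 4× images of lung cancer cell lines in 1536-well plates, 5 days after pin-tool dosing the day after seeding with one drug alone or a fixed anchor-drug dose plus five library-drug doses (not always all listed) in √10 steps.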
NCI-H522 gave a relative viability of 1.02. NCI-H727 gave a relative viability of 1.18. NCI-H1395 showed a relative viability of 0.772. Cell Line NCI-H1648 has a relative viability of 0.682. NCI-H1793 showed a relative viability of 0.948. In the case of NCI-H1944, the relative viability is reported as 0.519. Cell Line NCI-H2170 has a relative viability of 0.881. In the case of NCI-H2342, the relative viability is reported as 0.625. SK-MES-1 was tested, and the relative viability was 1.18. For SW 900, the relative viability was 0.577.

Same assay, conditions: first compound 0.253 µM
Cell Line 201T has a relative viability of 0.918. Work on A-427 yielded a relative viability of 0.852. In the case of ABC-1, the relative viability is reported as 1.2. Work on BEN yielded a relative viability of 0.62. CAL-12T showed a relative viability of 1.02. Work on COR-L23 yielded a relative viability of 0.461. For COR-L 105, the relative viability was 0.795. With ChaGo-K-1 the relative viability was 0.843. EKVX gave a relative viability of 0.752. In the case of EMC-BAC-2, the relative viability is reported as 0.51. EPLC-272H gave a relative viability of 0.372. In the case of H3255, the relative viability is reported as 0.737. For HARA, the relative viability was 0.556. In the case of HCC-15, the relative viability is reported as 0.876. In the case of HCC-44, the relative viability is reported as 1.07. For IA-LM, the relative viability was 0.968. With LK-2 the relative viability was 0.269. NCI-H358 was tested, and the relative viability was 0.866. NCI-H522 was tested, and the relative viability was 1.02. Cell Line NCI-H1395 has a relative viability of 0.815. With NCI-H1648 the relative viability was 0.503. With NCI-H1793 the relative viability was 0.779. NCI-H1944 showed a relative viability of 0.526. For NCI-H2170, the relative viability was 0.751. Work on NCI-H2342 yielded a relative viability of 0.655. Cell Line SK-MES-1 has a relative viability of 1.14. SW 900 was tested, and the relative viability was 0.586.

Same assay, conditions: first compound 0.8 µM
Work on 201T yielded a relative viability of 0.898. A-427 gave a relative viability of 0.855. For ABC-1, the relative viability was 1.07. For BEN, the relative viability was 0.609. With CAL-12T the relative viability was 0.741. COR-L23 showed a relative viability of 0.333. Work on COR-L 105 yielded a relative viability of 0.872. ChaGo-K-1 gave a relative viability of 0.789. For EKVX, the relative viability was 0.713. With EMC-BAC-2 the relative viability was 0.432. EPLC-272H showed a relative viability of 0.396. With H3255 the relative viability was 0.764. Work on HARA yielded a relative viability of 0.523. HCC-15 gave a relative viability of 0.871. In the case of HCC-44, the relative viability is reported as 1.08. IA-LM gave a relative viability of 0.958. LK-2 was tested, and the relative viability was 0.248. Cell Line NCI-H358 has a relative viability of 0.616. In the case of NCI-H522, the relative viability is reported as 0.875. NCI-H727 gave a relative viability of 1.23. NCI-H1395 showed a relative viability of 0.64. For NCI-H1648, the relative viability was 0.403. Cell Line NCI-H1793 has a relative viability of 0.773. Cell Line NCI-H1944 has a relative viability of 0.454. NCI-H2170 gave a relative viability of 0.792. With NCI-H2342 the relative viability was 0.763. SK-MES-1 gave a relative viability of 1.04. SW 900 was tested, and the relative viability was 0.482.

Same assay, conditions: first compound 2.53 µM
201T was tested, and the relative viability was 0.969. A-427 gave a relative viability of 0.866. In the case of ABC-1, the relative viability is reported as 1.04. BEN was tested, and the relative viability was 0.589. CAL-12T was tested, and the relative viability was 0.794. COR-L23 showed a relative viability of 0.415. COR-L 105 was tested, and the relative viability was 0.782. ChaGo-K-1 gave a relative viability of 0.656. Work on EKVX yielded a relative viability of 0.589. Work on EMC-BAC-2 yielded a relative viability of 0.29. Work on EPLC-272H yielded a relative viability of 0.346. H3255 showed a relative viability of 0.74. HCC-15 showed a relative viability of 0.887. HCC-44 gave a relative viability of 1.01. With IA-LM the relative viability was 0.765. LK-2 showed a relative viability of 0.145. Work on NCI-H358 yielded a relative viability of 0.618. With NCI-H522 the relative viability was 0.672. With NCI-H727 the relative viability was 1.08. NCI-H1395 was tested, and the relative viability was 0.535. In the case of NCI-H1648, the relative viability is reported as 0.54. NCI-H1793 showed a relative viability of 0.522. With NCI-H1944 the relative viability was 0.422. In the case of NCI-H2170, the relative viability is reported as 0.718. NCI-H2342 was tested, and the relative viability was 0.685. SK-MES-1 was tested, and the relative viability was 0.961. SW 900 was tested, and the relative viability was 0.355.

Same assay, conditions: first compound 8 µM
In the case of 201T, the relative viability is reported as 0.966. A-427 showed a relative viability of 0.853. ABC-1 was tested, and the relative viability was 1.22. BEN showed a relative viability of 0.536. In the case of CAL-12T, the relative viability is reported as 0.765. With COR-L23 the relative viability was 0.427. For COR-L 105, the relative viability was 0.805. Work on ChaGo-K-1 yielded a relative viability of 0.565. Cell Line EKVX has a relative viability of 0.57. EMC-BAC-2 showed a relative viability of 0.362. EPLC-272H was tested, and the relative viability was 0.256. Work on H3255 yielded a relative viability of 0.794. Work on HARA yielded a relative viability of 0.51. HCC-15 gave a relative viability of 0.706. HCC-44 was tested, and the relative viability was 0.934. IA-LM was tested, and the relative viability was 0.92. For LK-2, the relative viability was 0.228. Work on NCI-H358 yielded a relative viability of 0.578. With NCI-H522 the relative viability was 0.816. With NCI-H727 the relative viability was 0.999. With NCI-H1395 the relative viability was 0.605. Cell Line NCI-H1648 has a relative viability of 0.276. In the case of NCI-H1793, the relative viability is reported as 0.628. NCI-H1944 gave a relative viability of 0.419. In the case of NCI-H2170, the relative viability is reported as 0.775. Work on NCI-H2342 yielded a relative viability of 0.72. SK-MES-1 gave a relative viability of 0.928. Cell Line SW 900 has a relative viability of 0.454.

Each cell line was assayed with N#CC1(c2ccc(NC(=O)c3cccnc3NCc3ccncc3)cc2)CCCC1 [Apatinib] + Cc1nc(Nc2ncc(C(=O)Nc3c(C)cccc3Cl)s2)cc(N2CCN(CCO)CC2)n1 [Dasatinib] (partner 0.075 µM) in the same assay as above. Conditions: first compound 0.08 µM.
In short: as §1
In the case of 201T, the relative viability is reported as 0.617. Cell Line A-427 has a relative viability of 0.706. In the case of BEN, the relative viability is reported as 0.251. CAL-12T was tested, and the relative viability was 0.523. COR-L23 was tested, and the relative viability was 0.469. For COR-L 105, the relative viability was 0.357. Cell Line ChaGo-K-1 has a relative viability of 0.603. Cell Line EKVX has a relative viability of 0.603. EMC-BAC-2 was tested, and the relative viability was 0.32.

Source: the supplement of paper PMC10307832
